Source: PMC10539361, “Allosteric modulation of the fish taste receptor type 1 (T1R) family by the extracellular chloride ion” (Scientific Reports, 2023)
Numbering of substitutions follows the chain as printed.

How the values were obtained:
hT1R2/hT1R3 = target: T1, hT1R2/hT1R3 (Homo sapiens, UniProt Q7RTX0+Q8TE23); experiment: Ca2+ mobilization dose-response assay, stable cells expressing hT1R2/hT1R3 with G16gust44; type: cell-based; settings: for sensitivity in high (141.4 mM) Cl- buffer vs 10 mM Cl- buffer: 10 mM vs 141.4 mM Cl- buffer
T1 construct: expressed in transfected cells
T1 sequence (Q8TE23 20-839): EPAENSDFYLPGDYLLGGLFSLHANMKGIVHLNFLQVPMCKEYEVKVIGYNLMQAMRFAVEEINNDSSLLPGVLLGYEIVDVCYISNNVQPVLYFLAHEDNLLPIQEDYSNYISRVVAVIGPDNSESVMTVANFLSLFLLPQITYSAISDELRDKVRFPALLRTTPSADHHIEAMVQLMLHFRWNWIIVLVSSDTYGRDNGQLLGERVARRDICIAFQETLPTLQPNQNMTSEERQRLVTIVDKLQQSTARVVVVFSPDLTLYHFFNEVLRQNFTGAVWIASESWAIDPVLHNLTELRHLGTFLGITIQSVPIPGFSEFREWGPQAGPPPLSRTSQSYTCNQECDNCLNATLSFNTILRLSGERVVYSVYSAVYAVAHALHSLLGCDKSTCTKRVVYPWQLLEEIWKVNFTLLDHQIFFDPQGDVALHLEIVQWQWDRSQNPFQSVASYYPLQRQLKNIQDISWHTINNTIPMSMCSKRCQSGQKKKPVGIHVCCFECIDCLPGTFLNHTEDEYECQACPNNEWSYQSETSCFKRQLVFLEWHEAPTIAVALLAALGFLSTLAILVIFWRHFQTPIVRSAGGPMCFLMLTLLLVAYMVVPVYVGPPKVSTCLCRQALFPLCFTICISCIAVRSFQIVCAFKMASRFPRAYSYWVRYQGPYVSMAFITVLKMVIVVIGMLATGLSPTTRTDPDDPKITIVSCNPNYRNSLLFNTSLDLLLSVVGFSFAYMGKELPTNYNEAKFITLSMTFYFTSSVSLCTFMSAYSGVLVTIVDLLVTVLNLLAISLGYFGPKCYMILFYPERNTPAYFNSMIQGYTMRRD
T1 sequence (Q7RTX0 21-852): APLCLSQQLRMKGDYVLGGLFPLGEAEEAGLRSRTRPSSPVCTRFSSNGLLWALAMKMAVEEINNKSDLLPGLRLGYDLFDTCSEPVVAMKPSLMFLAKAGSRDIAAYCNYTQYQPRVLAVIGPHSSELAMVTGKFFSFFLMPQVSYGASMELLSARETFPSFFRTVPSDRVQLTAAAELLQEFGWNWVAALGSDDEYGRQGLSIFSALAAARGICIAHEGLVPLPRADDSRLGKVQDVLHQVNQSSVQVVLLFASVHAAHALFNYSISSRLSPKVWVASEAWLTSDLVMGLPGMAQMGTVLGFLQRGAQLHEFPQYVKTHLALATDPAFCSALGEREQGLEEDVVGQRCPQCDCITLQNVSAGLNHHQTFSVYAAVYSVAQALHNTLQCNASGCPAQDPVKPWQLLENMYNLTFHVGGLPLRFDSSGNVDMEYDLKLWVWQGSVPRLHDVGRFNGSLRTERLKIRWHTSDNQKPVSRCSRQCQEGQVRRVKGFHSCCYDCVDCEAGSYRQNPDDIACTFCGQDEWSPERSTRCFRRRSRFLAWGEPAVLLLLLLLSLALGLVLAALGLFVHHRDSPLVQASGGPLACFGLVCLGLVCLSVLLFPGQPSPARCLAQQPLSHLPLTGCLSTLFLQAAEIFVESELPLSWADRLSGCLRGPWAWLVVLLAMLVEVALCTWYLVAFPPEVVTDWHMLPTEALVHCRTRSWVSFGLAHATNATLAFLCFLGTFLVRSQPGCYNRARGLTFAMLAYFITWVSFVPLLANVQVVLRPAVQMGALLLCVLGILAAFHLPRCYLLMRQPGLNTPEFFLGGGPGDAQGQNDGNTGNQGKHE
Protocol: (§1) The buffers with lower Cl^− were prepared by progressively replacing NaCl, KCl, CaCl2 and MgCl2 in the buffer with gluconate equivalents[20]. The pH was adjusted to 7.4 with NaOH. Ligands were diluted with the assay buffers at the desired concentrations.
Measurements of the responses of the cells by cell-based assay based on the intracellular Ca^2+ mobilization were carried out as described previously with some modifications[20],[34],[46],[47]. […] The cells were seeded in 96-well plates (clear-bottomed CellBIND surface plate, Corning, Glendale, AZ, USA) coated with ε-poly-L-lysine (Cosmo Bio, Tokyo, Japan) at approximately 70,000 cells per well. After 20 h, the medium was removed and replaced with high Cl^− buffer. After 3 h 30 min incubation at 27 °C, cells were loaded with 5 µM calcium-indicator dye Fluo-8 AM (AAT Bioquest, Sunnyvale, CA, USA) diluted in high Cl^− buffer. After incubation for 30 min at 27 °C, the cells were washed with buffers containing appropriate concentrations of Cl^−. The cellular assay was initiated after 3–5 min of resting and was completed within 5 min. The measurements were made using FlexStation 3 (Molecular Devices, Sunnyvale, CA, USA) at 27 °C. Fluorescence changes (i.e., excitation at 485 nm and emission at 525 nm with a cutoff at 515 nm) were monitored at 2 s intervals. A 100-µL aliquot of assay buffer supplemented with 2 × ligands was added at 20 s, and scanning was continued for an additional 40 s. The response of each well was determined as ∆RFU (delta relative fluorescent units), which was calculated as (maximum fluorescent value)—(minimum fluorescent value). […] Such normalized data from more than three independent experiments are reported as the mean ± standard error of the mean (SEM). Dose‒response fitting curves were calculated by Prism 9 (GraphPad Software, San Diego, CA) using nonlinear regression (log(agonist) vs. response—variable slope), based on the integrated data from the several independent experiments.

mfT1R2a/mfT1R3 = target: T2, mfT1R2a/mfT1R3 (Oryzias latipes, UniProt Q2MHK2+Q2MHK5); experiment: Effect of anions, cations and osmotic pressure on cellular responses, cells in 10 mM Cl- buffer, mfT1R2a/mfT1R3; type: cell-based, medaka fish
T2 sequence (Q2MHK5 20-819): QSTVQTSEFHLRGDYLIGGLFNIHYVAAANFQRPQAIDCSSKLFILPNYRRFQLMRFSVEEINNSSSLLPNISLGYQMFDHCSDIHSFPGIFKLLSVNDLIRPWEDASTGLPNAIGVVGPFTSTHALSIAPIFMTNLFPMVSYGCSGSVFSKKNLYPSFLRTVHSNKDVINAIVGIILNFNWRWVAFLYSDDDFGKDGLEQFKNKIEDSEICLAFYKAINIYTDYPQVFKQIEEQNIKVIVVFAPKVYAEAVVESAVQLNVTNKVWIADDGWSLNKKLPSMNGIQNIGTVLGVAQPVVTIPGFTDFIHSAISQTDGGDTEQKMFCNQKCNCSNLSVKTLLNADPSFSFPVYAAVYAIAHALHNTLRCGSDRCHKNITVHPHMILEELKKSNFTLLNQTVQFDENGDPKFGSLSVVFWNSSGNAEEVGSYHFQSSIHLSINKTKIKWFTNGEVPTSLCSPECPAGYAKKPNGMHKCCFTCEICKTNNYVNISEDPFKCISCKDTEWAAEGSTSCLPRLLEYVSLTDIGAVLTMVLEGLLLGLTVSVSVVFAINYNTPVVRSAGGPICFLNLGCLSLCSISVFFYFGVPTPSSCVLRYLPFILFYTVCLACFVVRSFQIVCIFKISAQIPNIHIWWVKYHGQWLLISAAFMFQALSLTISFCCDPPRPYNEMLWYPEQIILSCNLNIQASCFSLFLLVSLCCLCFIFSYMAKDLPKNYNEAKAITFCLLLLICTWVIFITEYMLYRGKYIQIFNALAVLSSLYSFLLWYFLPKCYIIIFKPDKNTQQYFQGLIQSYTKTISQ
T2 sequence (Q2MHK2 20-853): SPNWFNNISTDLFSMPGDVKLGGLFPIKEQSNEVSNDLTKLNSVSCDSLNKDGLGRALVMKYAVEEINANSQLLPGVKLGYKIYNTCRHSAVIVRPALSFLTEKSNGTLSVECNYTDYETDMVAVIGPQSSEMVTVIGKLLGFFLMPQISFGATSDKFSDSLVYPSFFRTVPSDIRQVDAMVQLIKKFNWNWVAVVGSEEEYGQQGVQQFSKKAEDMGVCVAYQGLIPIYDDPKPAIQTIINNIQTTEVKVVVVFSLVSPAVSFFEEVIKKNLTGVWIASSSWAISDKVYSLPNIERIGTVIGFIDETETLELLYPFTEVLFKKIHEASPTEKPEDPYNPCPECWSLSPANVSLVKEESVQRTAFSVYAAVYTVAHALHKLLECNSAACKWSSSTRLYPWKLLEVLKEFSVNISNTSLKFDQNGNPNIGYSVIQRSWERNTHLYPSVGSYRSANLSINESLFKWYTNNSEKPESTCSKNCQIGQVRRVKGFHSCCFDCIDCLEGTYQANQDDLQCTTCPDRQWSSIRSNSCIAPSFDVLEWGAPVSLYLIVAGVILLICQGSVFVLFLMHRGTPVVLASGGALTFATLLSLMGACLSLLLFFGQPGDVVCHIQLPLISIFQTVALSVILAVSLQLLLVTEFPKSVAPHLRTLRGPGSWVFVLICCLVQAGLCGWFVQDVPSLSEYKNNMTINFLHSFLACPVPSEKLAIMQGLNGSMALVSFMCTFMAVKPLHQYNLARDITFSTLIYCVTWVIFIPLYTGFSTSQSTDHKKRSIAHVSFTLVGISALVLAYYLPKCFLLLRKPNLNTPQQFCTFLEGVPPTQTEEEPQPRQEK
Protocol: Cells were seeded in 96-well plates coated with ε-poly-L-lysine at approximately 70,000 cells per well. […] Fluorescence changes were monitored at 2 s intervals, as described above. […] Three independent experiments were conducted for each receptor, and representative results are shown as the mean ± SEM (n = 3 replicates). Statistical tests were conducted using KyPlot version 6.0 (KyensLab Inc., Tokyo, Japan). Statistical significance was set at p < 0.05.

hT1R2/hT1R3 T102E = target: T3, hT1R2/hT1R3 T102E (Homo sapiens, UniProt Q7RTX0+Q8TE23, T102E); experiment: Ca2+ mobilization dose-response assay, site X mutant hT1R2/hT1R3 T102E; settings: EC50, [Cl-]o=10 mM; unit inferred
T3 sequence (Q8TE23 20-839): T1 sequence (Q8TE23 20-839)
T3 sequence (Q7RTX0 21-852 T102E): T1 sequence (Q7RTX0 21-852) with T82E
Protocol: as §1
Measurements of the responses of the cells by cell-based assay based on the intracellular Ca^2+ mobilization were carried out as described previously with some modifications[20],[34],[46],[47]. Cell lines stably expressing T1R2, T1R3 and chimeric G-protein α-subunit, G16gust44[48], were constructed using the Flp-In pcDNA5/FRT complete system (Thermo Fisher Scientific, Waltham, MA, USA) described in our previous studies[34],[46]. […] Fluorescence changes (i.e., excitation at 485 nm and emission at 525 nm with a cutoff at 515 nm) were monitored at 2 s intervals. […] The response of each well was determined as ∆RFU (delta relative fluorescent units), which was calculated as (maximum fluorescent value)—(minimum fluorescent value). […] Dose‒response fitting curves were calculated by Prism 9 (GraphPad Software, San Diego, CA) using nonlinear regression (log(agonist) vs. response—variable slope), based on the integrated data from the several independent experiments.

| SMILES | sensitivity in high (141.4 mM) Cl- buffer vs 10 mM Cl- buffer (hT1R2/hT1R3) | additional anion concentration needed to significantly increase the response intensity to L-Gln (mfT1R2a/mfT1R3; added to 10 mM Cl- buffer with 200 µM L-Gln) | response to fixed concentration of L-Gln on coapplication (mfT1R2a/mfT1R3; coapplied with 200 µM L-Gln, cells in 10 mM Cl- buffer, final [Cl-]o up to 60 mM) | cellular response to the salt alone (mfT1R2a/mfT1R3; without agonist, cells in 10 mM Cl- buffer) | EC50 (hT1R2/hT1R3; [Cl-]o=10 mM, unit inferred) | EC50 (hT1R2/hT1R3 T102E) |
| --- | --- | --- | --- | --- | --- | --- |
| N[C@H](Cc1c[nH]c2ccccc12)C(=O)O [D-tryptophan] | comparable | – | – | – | – | – |
| [Br-].[Na+] [NaBr] | – | 5 mM | enhanced | did not elicit | – | – |
| OC[C@H]1O[C@H](O[C@]2(CCl)O[C@H](CCl)[C@@H](O)[C@@H]2O)[C@H](O)[C@@H](O)[C@H]1Cl [sucralose, Sucralose] | comparable | – | – | – | 92.5 µM | 169 µM |
